Source: ChEMBL document CHEMBL4842322, “A naphthalimide-polyamine conjugate preferentially accumulates in hepatic carcinoma metastases as a lysosome-targeted antimetastatic agent” (Eur J Med Chem, 2021)
Activity calls are given as the source filed them. No cut-off for these calls is given here.

How the values were obtained:
[1] = tested on: Huh-7; assay: Cytotoxicity against human Huh-7 cells assessed as reduction in cell viability at 5 to 15 uM incubated for 24 hrs in presence of polyamine transporter inhibitor, Spd by MTT assay; format: functional, cell-based; settings: dose 5-15 µM
[2] = tested on: HepG2; assay: Cytotoxicity against human HepG2 cells assessed as inhibition of cell growth incubated for 48 hrs by MTT assay; format: functional, cell-based; settings: HepG2, 48 h
[3] = tested on: Huh-7; assay: Cytotoxicity against human Huh-7 cells assessed as inhibition of cell growth incubated for 48 hrs by MTT assay; format: functional, cell-based; settings: Huh-7, 48 h
[4] = tested on: MDA-MB-231; assay: Cytotoxicity against human MDA-MB-231 cells assessed as inhibition of cell growth incubated for 48 hrs by MTT assay; format: functional, cell-based; settings: MDA-MB-231, 48 h
[5] = tested on: A549; assay: Cytotoxicity against human A549 cells assessed as inhibition of cell growth incubated for 48 hrs by MTT assay; format: functional, cell-based; settings: A549, 48 h
[6] = tested on: A549; assay: Cytotoxicity against cisplatin-resistant human A549 cells assessed as inhibition of cell growth incubated for 48 hrs by MTT assay; format: functional, cell-based; settings: A549, 48 h
[7] = Resistance factor, ratio of IC50 for cisplatin-resistant human A549 cells to IC50 for human A549 cells; format: functional
[8] = tested on: HepG2; assay: Cytotoxicity against human HepG2 cells assessed as inhibitory of cell growth measured after 24 hrs by MTT assay; format: functional, cell-based; settings: HepG2, 24 h
[9] = tested on: Huh-7; assay: Cytotoxicity against human Huh-7 cells assessed as inhibition of cell growth measured after 24 hrs by MTT assay; format: functional, cell-based; settings: Huh-7, 24 h
[10] = tested on: L02; assay: Cytotoxicity against human HL7702 cells assessed as inhibition of cell growth measured after 24 hrs by MTT assay; format: cell-based; settings: L02, 24 h
[11] = Selectivity index, ratio of IC50 for human HL7702 cells to IC50 for human HepG2 cells; format: toxicity; settings: HL7702 cells and HepG2 cells, read-out: Ratio IC50
[12] = Antitumor activity against human HCC cells xenografted in BALB/c mouse assessed as inhibition of tumor weight at 3 mg/kg, iv administered once daily for 7 days; format: functional; settings: 168 h, time 7 day
[13] = Antitumor activity against human HCC cells xenografted in BALB/c mouse assessed as inhibition of tumor weight at 5 mg/kg, iv administered once daily for 7 days; format: functional; settings: 168 h, time 7 day
[14] = Antimetastatic activity against human HCC cells xenografted in BALB/c mouse assessed as reduction lung metastatic nodules at 1 mg/kg, iv administered once every 2 days for 14 days; format: functional; settings: 336 h, time 14 day
[15] = Antimetastatic activity against human HCC cells xenografted in BALB/c mouse assessed as reduction lung metastatic nodules at 5 mg/kg, iv administered once every 2 days for 14 days; format: functional; settings: 336 h, time 14 day
[16] = tested on: HepG2; assay: Inhibition of tumor metastasis in human HepG2 cells assessed as downregulation of HMGB1 gene expression level measured after 24 hrs by qRT-PCR analysis; format: functional, cell-based; settings: dose 5-15 µM
[17] = tested on: HepG2; assay: Inhibition of tumor metastasis in human HepG2 cells assessed as upregulation of p62 gene expression level at 5 to 15 uM measured after 24 hrs by qRT-PCR analysis; format: functional, cell-based; settings: dose 5-15 µM
[18] = tested on: HepG2; assay: Inhibition of tumor metastasis in human HepG2 cells assessed as downregulation of LC3-II gene expression level at 5 to 15 uM measured after 24 hrs by qRT-PCR analysis; format: functional, cell-based; settings: dose 5-15 µM
[19] = tested on: HepG2; assay: Inhibition of tumor metastasis in human HepG2 cells assessed as upregulation of LC3-I gene expression level at 5 to 15 uM measured after 24 hrs by qRT-PCR analysis; format: functional, cell-based; settings: dose 5-15 µM
[20] = tested on: A549; assay: Inhibition of tumor metastasis in cisplatin-resistant human A549 cells assessed as upregulation of p53 expression level at 5 to 15 uM measured after 24 hrs by western blot analysis; format: functional, cell-based; settings: dose 5-15 µM
[21] = tested on: HepG2; assay: Inhibition of tumor metastasis in human HepG2 cells assessed as upregulation of SSAT gene expression level at 5 to 15 uM measured after 24 hrs by qRT-PCR analysis; format: functional, cell-based; settings: dose 5-15 µM
[22] = Upregulation of PAO expression in human Huh-7 cells at 10 uM measured after 24 hrs relative to control; format: functional
[23] = tested on: HepG2; assay: Downregulation of Spermidine contents in human HepG2 cells measured after 24 hrs by HPLC analysis; format: functional, cell-based
[24] = tested on: HepG2; assay: Downregulation of Spermine contents in human HepG2 cells measured after 24 hrs by HPLC analysis; format: functional, cell-based
[25] = tested on: Huh-7; assay: Downregulation of Putrescine contents in human Huh-7 cells measured after 24 hrs by HPLC analysis; format: functional, cell-based
[26] = tested on: Huh-7; assay: Downregulation of Spermidine contents in human Huh-7 cells measured after 24 hrs by HPLC analysis; format: functional, cell-based
[27] = tested on: HepG2; assay: Induction of apoptosis in human HepG2 cells assessed as induction of DNA damage by measuring upregulation of gammaH2AX expression at 5 to 15 uM; format: functional, cell-based; settings: dose 5-15 µM
[28] = Toxicity in BALB/c mouse xenografted with human HCC cells assessed as effect on spleen weight index at 1 to 5 mg/kg, iv administered once daily for 7 days; format: organism-based; settings: in vivo, 168 h, dose 1-5 mg/kg, time 7 day
[29] = Toxicity in BALB/c mouse xenografted with human HCC cells assessed as effect on kidney weight index at 1 to 5 mg/kg, iv administered once daily for 7 days; format: organism-based; settings: in vivo, 168 h, dose 1-5 mg/kg, time 7 day
[30] = Toxicity in BALB/c mouse xenografted with human HCC cells assessed as effect on lung weight index at 1 to 5 mg/kg, iv administered once daily for 7 days; format: organism-based; settings: in vivo, 168 h, dose 1-5 mg/kg, time 7 day
[31] = Drug uptake in endoplasmic reticulum of human HepG2 cells at 10 uM incubated for 8 hrs by ER-tarcker dye based laser confocal microscopy; format: ADME, subcellular; settings: hepg2, 8 h
[32] = Drug uptake in mitochondria of human HepG2 cells at 10 uM incubated for 8 hrs by Mito-tarcker dye based laser confocal microscopy; format: ADME; settings: hepg2, 8 h
[33] = Drug uptake in golgi apparatus of human HepG2 cells at 10 uM incubated for 8 hrs by Golgi-tracker dye based laser confocal microscopy; format: ADME, subcellular, Golgi body; settings: hepg2, 8 h
[34] = tested on: HepG2; assay: Inhibition of tumor metastasis in human HepG2 cells assessed as upregulation of p53 gene expression level at 5 to 15 uM measured after 24 hrs by qRT-PCR analysis; format: functional, cell-based; settings: dose 5-15 µM
[35] = tested on: HepG2; assay: Potency index, ratio of amonafide IC50 to test compound IC50 for human HepG2 cells by MTT assay; format: functional
[36] = tested on: HepG2; assay: Potency index, ratio of cisplatin IC50 to test compound IC50 for human HepG2 cells by MTT assay; format: functional
[37] = tested on: Huh-7; assay: Potency index, ratio of cisplatin IC50 to test compound IC50 for human Huh-7 cells by MTT assay; format: functional
[38] = Ratio of amonafide IC50 to test compound IC50 for human MDA-MB-231 cells by MTT assay; format: functional
[39] = tested on: MDA-MB-231; assay: Potency index, ratio of cisplatin IC50 to test compound IC50 for human MDA-MB-231 cells by MTT assay; format: functional
[40] = Ratio of amonafide IC50 to test compound IC50 for human MCF7 cells by MTT assay; format: functional
[41] = Ratio of cisplatin IC50 to test compound IC50 for human MCF7 cells by MTT assay; format: functional
[42] = tested on: A549; assay: Potency index, ratio of amonafide IC50 to test compound IC50 for human A549 cells by MTT assay; format: functional
[43] = Potency index, ratio of cisplatin IC50 to test compound IC50 for cisplatin-resistant human A549 cells by MTT assay; format: functional

NCCCCNCCCCNCCCCN1C(=O)c2cccc3cc(NC(=O)CN)cc(c23)C1=O
Activity [1]: inactive
IC50 [2]: 1.32 µM
IC50 [3]: 0.98 µM
IC50 [4]: 15.4 µM
IC50 [5]: 20.3 µM
IC50 [6]: 15.5 µM
Ratio IC50 [7]: 0.76
IC50 [8]: 1.32 µM
IC50 [9]: 0.98 µM
IC50 [10]: 6.3 µM
selectivity ratio [11]: 4.77
inhibition in vivo at 3 mg/kg [12]: 70.1%
inhibition in vivo at 5 mg/kg [13]: 76%
inhibition in vivo at 1 mg/kg [14]: 58.5%
inhibition in vivo at 5 mg/kg [15]: 75%
inhibition [16]: Dose-Dependent Effect
inhibition [17]: Active
inhibition [18]: Active
inhibition [19]: Active
inhibition [20]: Active
inhibition [21]: Active
fold change (FC) [22]: 1.5
inhibition [23]: Active
inhibition [24]: Active
inhibition [25]: Active
inhibition [26]: Active
Activity [27]: Active
Activity [28]: Non-Toxic
Activity [29]: Non-Toxic
Activity [30]: Non-Toxic
Drug uptake [31]: Not Active
Drug uptake [32]: Not Active
Drug uptake [33]: Not Active
inhibition [34]: Active
Ratio IC50 [35]: 7.1
Ratio IC50 [36]: 6.74
Ratio IC50 [37]: 15.33
Ratio IC50 [38]: 0.99
Ratio IC50 [39]: 2.11
Ratio IC50 [40]: 0.67
Ratio IC50 [41]: 0.59
Ratio IC50 [42]: 1.15
Ratio IC50 [43]: 2.76
